How the values were obtained:
[1] = tested on: P. falciparum 3D7 trophozoites; assay: Metabolomic fingerprint profiling LC-MS; assay type: cell-based, Plasmodium falciparum; set-up: UDP-D-glucose / ADP-D-glucose: unit not given here; conditions: for Acetyllysine / N-acetyl-L-ornithine / N-carbamoyl-L-aspartate / NADPH / dAMP / dCMP / dTDP / dTMP / dTTP / dihydroorotate / orotate / DLH / DLS/SDL/SID / PD / PEE / PVNF / 3-phosphoglycerate / ADP-D-glucose / ATP / CDP / D-sedoheptulose-1/7-phosphate / FAD / GMP / NAD+ / NADP+ / Octoluse Bisphosphate / Pyroglutamic acid / UDP-D-glucose / UDP-D-glucuronate / UDP-N-acetyl-glucosamine / UDP / UMP / UTP / a-ketoglutarate / citrate/isocitrate / cytidine / dATP / dGMP/AMP / fumarate / glucose-1/6-phosphate / glycerate / guanine / guanosine / hypoxanthine / indole / inosine / nicotinate / ornithine / phosphoenolpyruvate / pyruvate / ribose-phosphate / sarcosine/alanine / sn-glycerol-3-phosphate / succinate/methylmalonic acid / uridine / xanthosine: S2 Table Metabolomics; for Acetyllysine: metabolite Acetyllysine; for N-acetyl-L-ornithine: metabolite N-acetyl-L-ornithine; for N-carbamoyl-L-aspartate: metabolite N-carbamoyl-L-aspartate; for NADPH: metabolite NADPH; for dAMP: metabolite dAMP; for dCMP: metabolite dCMP; for dTDP: metabolite dTDP; for dTMP: metabolite dTMP; for dTTP: metabolite dTTP; for dihydroorotate: metabolite dihydroorotate; for orotate: metabolite orotate; for DLH: peptide DLH; for DLS/SDL/SID: peptide DLS/SDL/SID; for PD: peptide PD; for PEE: peptide PEE; for PVNF: peptide PVNF; for 3-phosphoglycerate: metabolite 3-phosphoglycerate; for ADP-D-glucose: metabolite ADP-D-glucose; for ATP: metabolite ATP; for CDP: metabolite CDP; for CDP / D-sedoheptulose-1/7-phosphate / GMP / Octoluse Bisphosphate / UDP / UMP / UTP / citrate/isocitrate / dGMP/AMP / fumarate / glucose-1/6-phosphate / glycerate / guanine / guanosine / inosine / pyruvate / sarcosine/alanine / succinate/methylmalonic acid / uridine / xanthosine: change in metabolite level after compound treatment; for D-sedoheptulose-1/7-phosphate: metabolite D-sedoheptulose-1/7-phosphate; for FAD: metabolite FAD; for GMP: metabolite GMP; for NAD+: metabolite NAD+; for NADP+: metabolite NADP+; for Octoluse Bisphosphate: metabolite Octoluse Bisphosphate; for Pyroglutamic acid: metabolite Pyroglutamic acid; for UDP-D-glucose: metabolite UDP-D-glucose; for UDP-D-glucuronate: metabolite UDP-D-glucuronate; for UDP-N-acetyl-glucosamine: metabolite UDP-N-acetyl-glucosamine; for UDP: metabolite UDP; for UMP: metabolite UMP; for UTP: metabolite UTP; for a-ketoglutarate: metabolite a-ketoglutarate; for citrate/isocitrate: metabolite citrate/isocitrate; for cytidine: metabolite cytidine; for dATP: metabolite dATP; for dGMP/AMP: metabolite dGMP/AMP; for fumarate: metabolite fumarate; for glucose-1/6-phosphate: metabolite glucose-1/6-phosphate; for glycerate: metabolite glycerate; for guanine: metabolite guanine; for guanosine: metabolite guanosine; for hypoxanthine: metabolite hypoxanthine; for indole: metabolite indole; for inosine: metabolite inosine; for 2_3-Diphosphoglyceric acid / 4-phosphopantothenate / 6-phospho-D-gluconate / FMN / IMP / Pyrophosphate / Sedoheptoluse bisphosphate / cyclic-AMP / glutathione disulfide / lactate / myo-inositol: metabolite level change after treatment; for nicotinate: metabolite nicotinate; for ornithine: metabolite ornithine; for phosphoenolpyruvate: metabolite phosphoenolpyruvate; for pyruvate: metabolite pyruvate; for ribose-phosphate: metabolite ribose-phosphate; for sarcosine/alanine: metabolite sarcosine/alanine; for sn-glycerol-3-phosphate: metabolite sn-glycerol-3-phosphate; for succinate/methylmalonic acid: metabolite succinate/methylmalonic acid; for uridine: metabolite uridine; for xanthosine: metabolite xanthosine
P. falciparum = assay: EC50 listed in S2 Table Metabolomics (used to set the concentration tested); assay type: cell-based; conditions: Plasmodium falciparum; EC50 used for Factor_XEC50 in metabolomics; read-out: EC50_nM

## COc1ccc(C(C)=O)cc1N1C(=O)C2C(C1=O)C1(c3ccccc3)C(=O)C2(c2ccccc2)C(c2ccc(C)cc2)=C1c1ccc(C)cc1 (stereo not shown) [MMV007695]
[1]
  Acetyllysine: -0.2737
  N-acetyl-L-ornithine: -0.4583
  N-carbamoyl-L-aspartate: 0.3458
  NADPH: 1.835
  dAMP: 0.454
  dCMP: -0.0001746
  dTDP: 0.6225
  dTMP: 0.1739
  dTTP: 0.01162
  dihydroorotate: -0.0741
  orotate: 0.786
  DLH: 0.4365
  DLS/SDL/SID: 0.2312
  PD: -1.42
  PEE: 0.3408
  PVNF: 0.2956
  3-phosphoglycerate: -0.5907
  ADP-D-glucose: 0.2728
  ATP: 0.4735
  CDP: 0.708
  D-sedoheptulose-1/7-phosphate: 1.674
  FAD: 0.07228
  GMP: -0.9101
  NAD+: 0.2072
  NADP+: 0.5403
  Octoluse Bisphosphate: -1.5013
  Pyroglutamic acid: 0.5983
  UDP-D-glucose: 0.2909
  UDP-D-glucuronate: 0.7314
  UDP-N-acetyl-glucosamine: 0.05292
  UDP: 0.6476
  UMP: -1.868
  UTP: 0.1535
  a-ketoglutarate: 0.5943
  citrate/isocitrate: 1.421
  cytidine: 0.7161
  dATP: 0.1897
  dGMP/AMP: 0.2576
  fumarate: -0.8988
  glucose-1/6-phosphate: -0.6568
  glycerate: -0.4271
  guanine: 0.5906
  guanosine: -0.9684
  hypoxanthine: 0.7986
  indole: 0.2572
  inosine: -0.5212
  2_3-Diphosphoglyceric acid: -0.9184
  4-phosphopantothenate: -0.9898
  6-phospho-D-gluconate: -0.8607
  FMN: -0.08531
  IMP: -0.684
  Pyrophosphate: -1.54
  Sedoheptoluse bisphosphate: -1.405
  cyclic-AMP: -0.504
  glutathione disulfide: -0.8249
  lactate: -1.404
  myo-inositol: -3.565
  nicotinate: 1.458
  ornithine: -0.113
  phosphoenolpyruvate: -0.01223
  pyruvate: -0.001929
  ribose-phosphate: -0.0001746
  sarcosine/alanine: -1.812
  sn-glycerol-3-phosphate: -1.169
  succinate/methylmalonic acid: 0.009176
  uridine: 0.3917
  xanthosine: 0.304
P. falciparum
  EC50: 0.179 µM

## COc1ccc2c(c1)OC(O)(C(F)(F)C(F)(F)F)CC2=O (stereo not shown) [MMV007839]
[1]
  Acetyllysine: -0.1495
  N-acetyl-L-ornithine: -0.3633
  N-carbamoyl-L-aspartate: -1.795
  NADPH: -0.4001
  dAMP: -1.537
  dCMP: -0.8612
  dTDP: -1.865
  dTMP: -1.855
  dTTP: -0.1915
  dihydroorotate: -1.4167
  orotate: -2.224
  DLH: -0.6186
  DLS/SDL/SID: -1.11
  PD: 0.5838
  PEE: -0.1635
  PVNF: -0.3342
  3-phosphoglycerate: 0.9102
  ADP-D-glucose: -0.2
  ATP: -0.07659
  CDP: -1.957
  D-sedoheptulose-1/7-phosphate: -0.1553
  FAD: -0.4884
  GMP: -0.7332
  NAD+: -0.1711
  NADP+: -0.2719
  Octoluse Bisphosphate: 0.7306
  Pyroglutamic acid: 0.1304
  UDP-D-glucose: -0.2042
  UDP-D-glucuronate: -0.2026
  UDP-N-acetyl-glucosamine: -0.2915
  UDP: -2.077
  UMP: -0.8849
  UTP: -0.5295
  a-ketoglutarate: -0.1816
  citrate/isocitrate: 0.3799
  cytidine: 0.004906
  dATP: -0.1041
  dGMP/AMP: -1.779
  fumarate: -0.2064
  glucose-1/6-phosphate: -0.5084
  glycerate: 3.453
  guanine: -0.7539
  guanosine: -0.466
  hypoxanthine: 0.3062
  indole: 0.0845
  inosine: 0.6443
  2_3-Diphosphoglyceric acid: 0.2433
  4-phosphopantothenate: -0.5485
  6-phospho-D-gluconate: 0.05032
  FMN: -0.6664
  IMP: -0.6059
  Pyrophosphate: 0.1105
  Sedoheptoluse bisphosphate: 0.5834
  cyclic-AMP: -1.0489
  glutathione disulfide: -0.5477
  lactate: 0.3101
  myo-inositol: 0.232
  nicotinate: 0.1131
  ornithine: 0.4692
  phosphoenolpyruvate: 1.103
  pyruvate: 2.0227
  ribose-phosphate: 0.6152
  sarcosine/alanine: 0.4418
  sn-glycerol-3-phosphate: 0.2795
  succinate/methylmalonic acid: -0.36
  uridine: -0.244
  xanthosine: -0.1676
P. falciparum
  EC50: 0.283 µM

From paper PMC4965013, “Open Source Drug Discovery with the Malaria Box Compound Collection for Neglected Diseases and Beyond” (PLoS Pathogens, 2016)
